This is an account of results in publication PMC11844072, “Novel 5,6-dichlorobenzimidazole derivatives as dual BRAFWT and BRAFV600E inhibitors: design, synthesis, anti-cancer activity and molecular dynamics simulations” (BMC Chemistry, 2025).

Experiment in all cases: NCI 60 single concentration growth inhibition
What all share (format): cell-based, human

Test [1] deals with MDA-MB-468. To be noted: Homo sapiens, MDA-MB-468, Breast cancer, read-out: GI%. Put shortly: (§1)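 Read-out is SRB absorbance at 515 nm after TCA fixation (10% for adherent lines, 16% for suspension lines). Drugs were applied for 48 h following a 24 h plating period. Growth percentages came from time-zero, control and treated absorbances.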
The test system of test [2] is PC-3. To be noted: Homo sapiens, PC-3, Prostate cancer, read-out: GI%. In short, it runs like this: as §1
Test [3] concerns T-47D. The settings on record: Homo sapiens, T47D, Breast cancer, read-out: GI%. Put shortly: as §1
Test [4] has as its system UACC-257. The settings on record: Homo sapiens, UACC-257, Melanoma, read-out: GI%. Put shortly: as §1
The subject of test [5] is SN12C. The settings on record: Homo sapiens, Renal cancer, read-out: GI%. Put shortly: as §1
Test [6] relates to MOLT-4. To be noted: Homo sapiens, MOLT-4, Leukemia, read-out: GI%. Put shortly:
(§2)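 Single-dose screen: cells in RPMI 1640 with 5% FBS and 2 mM L-glutamine, pre-grown 24 h, then exposed to 10 µM compound for 48 h at 37 °C. Protein was measured by TCA fixation and sulforhodamine B staining at 515 nm, and percent growth was taken against time-zero and untreated wells.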

Test [7] has as its system SK-OV-3. The settings on record: Homo sapiens, SK-OV-3, Ovarian cancer, read-out: GI%. In short, it runs like this: as §1
Test [8] concerns ACHN. The settings on record: Homo sapiens, Renal cancer, read-out: GI%. In short, it runs like this: as §1
The subject of test [9] is MCF7. The settings on record: Homo sapiens, MCF7, Breast cancer, read-out: GI%. Put shortly:
as §1

Test [10] relates to KM12. To be noted: Homo sapiens, KM12, Colon cancer, read-out: GI%. Put shortly: as §1
Test [11] deals with A549/ATCC. To be noted: Homo sapiens, Non-small cell lung cancer, read-out: GI%. In short, it runs like this: as §1
Test [12] relates to HCT-116. The settings on record: Homo sapiens, HCT-116, Colon cancer, read-out: GI%. In short, it runs like this: as §1
Test [13] has as its system SK-MEL-2. The settings on record: Homo sapiens, SK-MEL-2, Melanoma, read-out: GI%. In short, it runs like this: as §1
The test system of test [14] is NCI-H23. The settings on record: Homo sapiens, NCI-H23, Non-small cell lung cancer, read-out: GI%. Put shortly:
as §1

Test [15] relates to SF-295. To be noted: Homo sapiens, SF-295, CNS cancer, read-out: GI%. In short, it runs like this:
as §1

The subject of test [16] is SK-MEL-28. To be noted: Homo sapiens, SK-MEL-28, Melanoma, read-out: GI%. Put shortly:
as §1

The test system of test [17] is NCI-H226. The settings on record: Homo sapiens, NCI-H226, Non-small cell lung cancer, read-out: GI%. Put shortly: as §1
For test [18], the system named is SF-268. The settings on record: Homo sapiens, SF-268, CNS cancer, read-out: GI%. In short, it runs like this:
as §1

Test [19] deals with SR. To be noted: Homo sapiens, Leukemia, read-out: GI%. Put shortly:
as §2

Test [20] has as its system RXF 393. The settings on record: Homo sapiens, RXF 393, Renal cancer, read-out: GI%. Put shortly:
as §1

Test [21] deals with HS 578T. To be noted: Homo sapiens, Breast cancer, read-out: GI%. Put shortly:
as §1

Test [22] has as its system M14. The settings on record: Homo sapiens, M14, Melanoma, read-out: GI%. In short, it runs like this: as §1

In the case of `COc1ccc(-c2nc3cc(Cl)c(Cl)cc3n2CC(=O)NN=Cc2cccc(O)c2)cc1` [Compound 10a, 2-(5,6-Dichloro-2-(4-methoxyphenyl)-1H-benzo[d]imidazol-1-yl)-N'-(3-hydroxybenzylidene)acetohydrazide], the inhibition at 10 µM was 82.1% in test [1]; 57.8% in test [2]; 69.7% in test [3]; 57.7% in test [4]; 31.3% in test [5]; 70.4% in test [6]. Moreover, the inhibition at 10 µM in test [7] was 35.5%; in test [8], 40%; in test [9] it was 80.6%; in test [10] it was 41%; in test [11], 62.5%; in test [12], 59.6%. Further, the inhibition at 10 µM was determined as 33.6% in test [13]; 53.8% in test [14]; 67.8% in test [15]; 39.3% in [16]; 43.7% in test [17]; 51.5% in test [18]. The inhibition at 10 µM is 42% in test [19], 44.4% in test [20], 36.9% in [21] and 41.1% in [22].
On to `COc1ccc(-c2nc3cc(Cl)c(Cl)cc3n2CC(=O)NN=Cc2ccc(O)cc2)cc1` [Compound 10b, 2-(5,6-Dichloro-2-(4-methoxyphenyl)-1H-benzo[d]imidazol-1-yl)-N'-(4-hydroxybenzylidene)acetohydrazide], for which the inhibition at 10 µM in test [1] came to 90.1%; in test [2], 40.7%; in test [3] it was 56.4%; in test [4] it was 23.9%; in test [5] it was 18%; in test [6] it was 77.2%. The inhibition at 10 µM in test [7] came to 24.6%; in test [8], 33.4%; in test [9] it was 74.2%; in test [10], 26.3%; in [11], 57.2%; in [12] it was 45.1%. For the same molecule, the inhibition at 10 µM was determined as 32.3% in test [13]; 20.3% in test [14]; 34% in test [15]; 26.4% in [16]; 35.5% in [17]; 52.5% in [18]. In addition, the inhibition at 10 µM is 64.7% in test [19], 41.2% in [20], 37.8% in test [21] and 39.1% in [22].
For the molecule `COc1ccc(-c2nc3cc(Cl)c(Cl)cc3n2CC(=O)NN=Cc2cccc(OC)c2)cc1` [Compound 10c, 2-(5,6-Dichloro-2-(4-methoxyphenyl)-1H-benzo[d]imidazol-1-yl)-N'-(3-methoxybenzylidene)acetohydrazide], the inhibition at 10 µM came to 76.1% in test [1]; 29.5% in [2]; 45.8% in test [3]; 20.9% in [4]; 9.21% in test [5]; 70.3% in [6]. Further, the inhibition at 10 µM came to 10.1% in test [7]; 20.4% in test [8]; 56.6% in [9]; 17.6% in test [10]; 36.1% in test [11]; 37.9% in [12]. In addition, the inhibition at 10 µM is 19.4% in test [13]; 10.2% in test [14]; 22.3% in [15]; 20.5% in test [16]; 17.1% in test [17]; 48.3% in [18]. Besides, the inhibition at 10 µM came to 48.4% in test [19], 23.1% in test [20], 28.9% in test [21] and 34.1% in [22].
Regarding `COc1ccc(C=NNC(=O)Cn2c(-c3ccc(OC)cc3)nc3cc(Cl)c(Cl)cc32)cc1` [Compound 10d, 2-(5,6-Dichloro-2-(4-methoxyphenyl)-1H-benzo[d]imidazol-1-yl)-N'-(4-methoxybenzylidene)acetohydrazide], the inhibition at 10 µM was 81.8% in test [1]; 68.5% in test [2]; 67.2% in [3]; 60.4% in [4]; 27.8% in test [5]; 68.9% in test [6]. Further, the inhibition at 10 µM worked out at 30.4% in test [7]; 40.2% in [8]; 81.5% in test [9]; 40.8% in test [10]; 59.4% in [11]; 61.3% in [12]. Besides, the inhibition at 10 µM was found to be 30.9% in [13]; 50.9% in test [14]; 66.8% in test [15]; 33.5% in [16]; 33.9% in test [17]; 48.6% in [18]. The inhibition at 10 µM in test [19] was 35.1%; in [20], 38.7%; in test [21], 34.6%; in test [22] it was 38.2%.
As to `COc1ccc(-c2nc3cc(Cl)c(Cl)cc3n2CC(=O)NN=Cc2cccc(OCC(=O)O)c2)cc1` [Compound 10e, 2-(3-((2-(2-(5,6-Dichloro-2-(4-methoxyphenyl)-1H-benzo[d]imidazol-1-yl)acetyl)hydrazono)methyl)phenoxy)acetic acid], the inhibition at 10 µM in test [1], in test [2], in test [3], in [4], in [5] and in test [6] was under 5% each time. Further, the inhibition at 10 µM was under 5% in test [7]; under 5% in [8]; 13.6% in test [9]; under 5% in test [10]; under 5% in test [11]; under 5% in [12]. The inhibition at 10 µM in test [13] was under 5%; in test [14] it was 5.12%; in [15], under 5%; in [16], under 5%; in test [17], under 5%; in test [18] it was under 5%. Also, the inhibition at 10 µM is under 5% in [19], under 5% in test [20], 7.11% in test [21] and 6.12% in test [22].
